US8758816B2, “Compositions comprising azelastine and methods of use thereof” (priority 2004, dated 2014)
Counter-ions that a name gives are not always drawn.

Tested on: patients with seasonal allergic rhinitis (SAR)
Assay: MP 428 study: individual symptom severity scores (runny nose, itchy nose, sneezing, congestion; 0-3 scale)
Type: in vivo, human
Conditions: Intent-to-Treat Population
Experimental: A two-week, randomized, double-blind study, which evaluated the effects of the co-administration of ASTELIN® (azelastine hydrochloride (HCl)) and FLONASE® (fluticasone propionate) compared to either product alone in patients with seasonal allergic rhinitis (SAR) was conducted during the 2006 Texas mountain cedar season. After a 5-day placebo lead-in period, 151 patients with moderate-to-severe allergic rhinitis symptoms were randomized to either: (1) (49 total patients) ASTELIN® (azelastine hydrochloride (HCl)) plus placebo saline nasal spray 2 sprays per nostril, 15 minutes apart, twice daily (AM & PM); (2) (50 total patients) FLONASE® (fluticasone propionate) plus placebo saline nasal spray, 2 sprays per nostril, 15 minutes apart, once daily (AM) and two sessions of placebo saline nasal spray, 2 sprays per nostril, 15 minutes apart (PM); or (3) (52 total patients) the co-administration of ASTELIN® (azelastine hydrochloride (HCl)) 2 sprays per nostril plus FLONASE® (fluticasone propionate) 2 sprays per nostril (AM), 15 minutes apart, and ASTELIN® (azelastine hydrochloride (HCl)) 2 sprays per nostril plus placebo saline nasal spray, 15 minutes apart, (PM) for a 2-week double-blind treatment period.
The primary efficacy variable was the change from baseline in the Total Nasal Symptom Score (TNSS), which comprised sneezing, itchy nose, runny nose, and nasal congestion (individual symptoms scores were assigned a value between 0 and 3, where 0=no symptoms and 3=severe symptoms). This study was not statistically designed to assess the differences between ASTELIN® and FLONASE®.
The results of the clinical trial are summarized and presented in Appendix A hereinbelow and in FIGS. 1-6. […] FIGS. 2-5 show the mean improvement in severity score (0-3 scale) from baseline for the symptoms of runny nose, itchy nose, sneezing and congestion, respectively.

CN1CCCC(n2nc(Cc3ccc(Cl)cc3)c3ccccc3c2=O)CC1 (racemic) [Azelastine, (±)-1-(2H)-phthalazinone, 4-[(4-chlorophenyl)methyl]-2-(hexahydro-1-methyl-1H-azepin-4-yl)-, mono-hydrochloride]
Percent Change from Baseline in AM and PM Combined Nasal Symptom Score: Congestion, LS Mean (Day 5): −18.24%
Percent Change from Baseline in AM and PM Combined Nasal Symptom Score: Congestion, Mean (Day 5): −18.92%
Percent Change from Baseline in AM and PM Combined Nasal Symptom Score: Congestion, Median (Day 5): −16.67%
Percent Change from Baseline in AM and PM Combined Nasal Symptom Score: Itchy Nose, LS Mean (Day 5): −24.75%
Percent Change from Baseline in AM and PM Combined Nasal Symptom Score: Itchy Nose, Mean (Day 5): −24.24%
Percent Change from Baseline in AM and PM Combined Nasal Symptom Score: Itchy Nose, Median (Day 5): −15.49%
Percent Change from Baseline in AM and PM Combined Nasal Symptom Score: Runny Nose, LS Mean (Day 5): −18.46%
Percent Change from Baseline in AM and PM Combined Nasal Symptom Score: Runny Nose, Mean (Day 5): −18.42%
Percent Change from Baseline in AM and PM Combined Nasal Symptom Score: Runny Nose, Median (Day 5): −11.76%
Percent Change from Baseline in AM and PM Combined Nasal Symptom Score: Sneezing, LS Mean (Day 5): −33.21%
Percent Change from Baseline in AM and PM Combined Nasal Symptom Score: Sneezing, Mean (Day 5): −32.23%
Percent Change from Baseline in AM and PM Combined Nasal Symptom Score: Sneezing, Median (Day 5): −25.23%
Change from Baseline in AM and PM Combined Nasal Symptom Score: Congestion, LS Mean (Day 6): −1.04
Change from Baseline in AM and PM Combined Nasal Symptom Score: Congestion, Mean (Day 6): −1.09
Change from Baseline in AM and PM Combined Nasal Symptom Score: Congestion, Median (Day 6): −0.92
Change from Baseline in AM and PM Combined Nasal Symptom Score: Itchy Nose, LS Mean (Day 6): −1.14
Change from Baseline in AM and PM Combined Nasal Symptom Score: Itchy Nose, Mean (Day 6): −1.14
Change from Baseline in AM and PM Combined Nasal Symptom Score: Itchy Nose, Median (Day 6): −0.73
Change from Baseline in AM and PM Combined Nasal Symptom Score: Runny Nose, LS Mean (Day 6): −0.94
Change from Baseline in AM and PM Combined Nasal Symptom Score: Runny Nose, Mean (Day 6): −0.95
Change from Baseline in AM and PM Combined Nasal Symptom Score: Runny Nose, Median (Day 6): −1.00
Change from Baseline in AM and PM Combined Nasal Symptom Score: Sneezing, LS Mean (Day 6): −1.27
Change from Baseline in AM and PM Combined Nasal Symptom Score: Sneezing, Mean (Day 6): −1.26
Change from Baseline in AM and PM Combined Nasal Symptom Score: Sneezing, Median (Day 6): −1.30
Percent Change from Baseline in AM and PM Combined Nasal Symptom Score: Congestion, LS Mean (Day 6): −18.26%
Percent Change from Baseline in AM and PM Combined Nasal Symptom Score: Congestion, Mean (Day 6): −18.97%
Percent Change from Baseline in AM and PM Combined Nasal Symptom Score: Congestion, Median (Day 6): −18.37%
Percent Change from Baseline in AM and PM Combined Nasal Symptom Score: Itchy Nose, LS Mean (Day 6): −24.98%
Percent Change from Baseline in AM and PM Combined Nasal Symptom Score: Itchy Nose, Mean (Day 6): −25.00%
Percent Change from Baseline in AM and PM Combined Nasal Symptom Score: Itchy Nose, Median (Day 6): −15.49%
Percent Change from Baseline in AM and PM Combined Nasal Symptom Score: Runny Nose, LS Mean (Day 6): −18.89%
Percent Change from Baseline in AM and PM Combined Nasal Symptom Score: Runny Nose, Mean (Day 6): −18.89%
Percent Change from Baseline in AM and PM Combined Nasal Symptom Score: Runny Nose, Median (Day 6): −21.74%
Percent Change from Baseline in AM and PM Combined Nasal Symptom Score: Sneezing, LS Mean (Day 6): −32.36%
Percent Change from Baseline in AM and PM Combined Nasal Symptom Score: Sneezing, Mean (Day 6): −31.52%
Percent Change from Baseline in AM and PM Combined Nasal Symptom Score: Sneezing, Median (Day 6): −28.00%
Change from Baseline in AM and PM Combined Nasal Symptom Score: Congestion, LS Mean (Day 7): −1.17
Change from Baseline in AM and PM Combined Nasal Symptom Score: Congestion, Mean (Day 7): −1.23
Change from Baseline in AM and PM Combined Nasal Symptom Score: Congestion, Median (Day 7): −1.00
Change from Baseline in AM and PM Combined Nasal Symptom Score: Itchy Nose, LS Mean (Day 7): −1.18
Change from Baseline in AM and PM Combined Nasal Symptom Score: Itchy Nose, Mean (Day 7): −1.17
Change from Baseline in AM and PM Combined Nasal Symptom Score: Itchy Nose, Median (Day 7): −0.90
Change from Baseline in AM and PM Combined Nasal Symptom Score: Runny Nose, LS Mean (Day 7): −0.93
Change from Baseline in AM and PM Combined Nasal Symptom Score: Runny Nose, Mean (Day 7): −0.95
Change from Baseline in AM and PM Combined Nasal Symptom Score: Runny Nose, Median (Day 7): −1.07
Change from Baseline in AM and PM Combined Nasal Symptom Score: Sneezing, LS Mean (Day 7): −1.76
Change from Baseline in AM and PM Combined Nasal Symptom Score: Sneezing, Mean (Day 7): −1.75
Change from Baseline in AM and PM Combined Nasal Symptom Score: Sneezing, Median (Day 7): −1.55
Percent Change from Baseline in AM and PM Combined Nasal Symptom Score: Congestion, LS Mean (Day 7): −21.14%
Percent Change from Baseline in AM and PM Combined Nasal Symptom Score: Congestion, Mean (Day 7): −22.02%
Percent Change from Baseline in AM and PM Combined Nasal Symptom Score: Congestion, Median (Day 7): −18.37%
Percent Change from Baseline in AM and PM Combined Nasal Symptom Score: Itchy Nose, LS Mean (Day 7): −26.35%
Percent Change from Baseline in AM and PM Combined Nasal Symptom Score: Itchy Nose, Mean (Day 7): −25.83%
Percent Change from Baseline in AM and PM Combined Nasal Symptom Score: Itchy Nose, Median (Day 7): −21.57%
Percent Change from Baseline in AM and PM Combined Nasal Symptom Score: Runny Nose, LS Mean (Day 7): −18.66%
Percent Change from Baseline in AM and PM Combined Nasal Symptom Score: Runny Nose, Mean (Day 7): −18.92%
Percent Change from Baseline in AM and PM Combined Nasal Symptom Score: Runny Nose, Median (Day 7): −25.00%
Percent Change from Baseline in AM and PM Combined Nasal Symptom Score: Sneezing, LS Mean (Day 7): −40.66%
Percent Change from Baseline in AM and PM Combined Nasal Symptom Score: Sneezing, Mean (Day 7): −39.73%
Percent Change from Baseline in AM and PM Combined Nasal Symptom Score: Sneezing, Median (Day 7): −38.78%
Change from Baseline in AM and PM Combined Nasal Symptom Score: Congestion, LS Mean (Day 8): −1.24
Change from Baseline in AM and PM Combined Nasal Symptom Score: Congestion, Mean (Day 8): −1.27
Change from Baseline in AM and PM Combined Nasal Symptom Score: Congestion, Median (Day 8): −1.00
Change from Baseline in AM and PM Combined Nasal Symptom Score: Itchy Nose, LS Mean (Day 8): −1.15
Change from Baseline in AM and PM Combined Nasal Symptom Score: Itchy Nose, Mean (Day 8): −1.12
Change from Baseline in AM and PM Combined Nasal Symptom Score: Itchy Nose, Median (Day 8): −0.83
Change from Baseline in AM and PM Combined Nasal Symptom Score: Runny Nose, LS Mean (Day 8): −1.23
Change from Baseline in AM and PM Combined Nasal Symptom Score: Runny Nose, Mean (Day 8): −1.25
Change from Baseline in AM and PM Combined Nasal Symptom Score: Runny Nose, Median (Day 8): −1.00
Change from Baseline in AM and PM Combined Nasal Symptom Score: Sneezing, LS Mean (Day 8): −1.74
Change from Baseline in AM and PM Combined Nasal Symptom Score: Sneezing, Mean (Day 8): −1.73
Change from Baseline in AM and PM Combined Nasal Symptom Score: Sneezing, Median (Day 8): −1.55
Percent Change from Baseline in AM and PM Combined Nasal Symptom Score: Congestion, LS Mean (Day 8): −22.22%
Percent Change from Baseline in AM and PM Combined Nasal Symptom Score: Congestion, Mean (Day 8): −22.68%
Percent Change from Baseline in AM and PM Combined Nasal Symptom Score: Congestion, Median (Day 8): −18.64%
Percent Change from Baseline in AM and PM Combined Nasal Symptom Score: Itchy Nose, LS Mean (Day 8): −25.37%
Percent Change from Baseline in AM and PM Combined Nasal Symptom Score: Itchy Nose, Mean (Day 8): −24.80%
Percent Change from Baseline in AM and PM Combined Nasal Symptom Score: Itchy Nose, Median (Day 8): −18.92%
Percent Change from Baseline in AM and PM Combined Nasal Symptom Score: Runny Nose, LS Mean (Day 8): −24.85%
Percent Change from Baseline in AM and PM Combined Nasal Symptom Score: Runny Nose, Mean (Day 8): −24.97%
Percent Change from Baseline in AM and PM Combined Nasal Symptom Score: Runny Nose, Median (Day 8): −25.00%
Percent Change from Baseline in AM and PM Combined Nasal Symptom Score: Sneezing, LS Mean (Day 8): −38.54%
Percent Change from Baseline in AM and PM Combined Nasal Symptom Score: Sneezing, Mean (Day 8): −37.78%
Percent Change from Baseline in AM and PM Combined Nasal Symptom Score: Sneezing, Median (Day 8): −33.33%
